Read-outs that look alike come from different tables or passages of the source.
Assay: Half-life of ADR destruction by UVA light in the presence of test compounds (decrease in absorbance at 480 nm)
Format: physicochemical
[1] = UVA light, 100 μM test compound with 0.5 μM riboflavin
[2] = UVA light, 100 μM test compound alone

| Compound | Half-Life of ADR Destruction, 100 μM Test Compound and 0.5 μM Riboflavin [1] [min] | Half-Life of ADR Destruction, 100 μM Test Compound [2] [min] | also measured |
| --- | --- | --- | --- |
| NCc1ccc(O)c(O)c1 [3,4-Dihydroxy Benzylamine] | 150.3 | – | – |
| N[C@@H](Cc1cccc(O)c1)C(=O)O [3-Hydroxy Phenylalanine] | 34.2 ± 5.9 | – | – |
| 4-Ethoxyphenyl-2-furyl ketone | 11.2 | 12.5 | – |
| NC(C(=O)O)c1ccccc1 (centres unmarked) [Phenylglycine] | 67.8 ± 10.7 | – | – |
| O=C(c1ccccc1)c1cccnc1C(=O)O [3-Benzoylpyridine-2-carboxylic acid] | 43.0 | 43.0 | – |
| O=C(O)Cc1c[nH]c2ccc(O)cc12 [5-Hydroxyindole-3-acetic acid] | 150.5 | – | – |
| COc1ccc(CCC(=O)O)cc1 [3-(4-Methoxyphenyl) Propionic Acid] | 12.5 | 75.3 | – |
| COc1[nH]c2ccccc2c1CN(C)C [2-Methoxy-3-(dimethylaminomethyl) indole] | 13.7 | 75.3 | – |
| Cc1ccc2[nH]c(C)cc2c1 [2,5-Dimethyl Indole] | 5.79 | 17.7 | – |
| O=S(=O)(O)c1ccccc1 [Benzenesulfonic acid] | 50.2 | – | – |
| O=C(O)C(=O)c1c[nH]c2ccccc12 [3-Indole glyoxylic acid] | 43.0 | – | – |
| COc1cc(OC)c(OC)cc1C=CC(=O)O [2,4,5-Trimethoxy Cinnamic Acid] | 18.8 | – | – |
| COc1ccc(CCCC(=O)O)cc1 [4-(4-Methoxyphenyl) Butyric Acid] | 10.8 | – | – |
| COc1ccc(C(=O)c2cccc(C(=O)O)c2)cc1OC [3′,4′-Dimethoxy-3-benzophenonecarboxylic acid] | 43.0 | 50.2 | – |
| CC(=O)c1c[nH]c2ccccc12 [3-Acetylindole] | 33.5 | – | – |
| COc1ccc(C=CC(=O)O)cc1 [4-Methoxy Cinnamic Acid] | 5.90 | 75.3 | – |

| Compound | Half-Life of ADR Destruction, 100 μM Test Compound and 0.5 μM Riboflavin [1] [min] | Half-Life of ADR Destruction, 100 μM Test Compound [2] [min] | also measured |
| --- | --- | --- | --- |
| Cn1c2ccccc2c(=O)c2ccccc21 [10-Methyl-9(10H) Acridone] | – | – | Half-Life of ADR Destruction, 100 μM Test Compound: 16.7 min |
| O=C1COc2ccccc21 [3-Coumaranone] | 11.2 | 11.2 | – |
| Nc1cc([N+](=O)[O-])cc([N+](=O)[O-])c1 [3,5-Dinitro Aniline] | – | – | Half-Life of ADR Destruction, 100 μM Test Compound and 0.5 μM Riboflavin: 75.3 min |
| O=C(O)C1=CC=C2N=NN=C2C1 [5-Benzotriazole-carboxylic acid] | 75.3 | – | – |
| C=C1C[C@]23C[C@@]1(O)CC[C@H]2[C@@]12C=C[C@H](O)[C@@](C)(C(=O)O1)[C@H]2[C@@H]3C(=O)O [Gibberellic acid] | – | 43.0 | – |
| CC(O)c1ccc2ccccc2c1 (stereo not drawn) [α-Methyl-2-naphthalenemethanol] | 33.5 | 43.0 | – |
| O=C(O)c1cccc2ccccc12 [Naphthalene-1-carboxylic acid] | 43.0 | 50.2 | – |
| OCCc1c[nH]c2ccccc12 [3-Indoleethanol] | 8.14 | – | – |
| Nc1ccc2ccccc2c1 [2-Aminonaplithalene] | – | – | Half-Life of ADR Destruction, 100 μM Test Compound and 0.5 μM Riboflavin: 20.1 min |
| Nc1ccccc1CO [2-Amino Benzyl Alcohol] | 3.96 | – | – |
| O=C(O)C=Cc1ccc(O)cc1 [4-Hydroxy Cinnamic Acid] | – | 50.2 | – |
| Cc1cccc(N)c1 [3-Methyl Aniline] | – | – | Half-Life of ADR Destruction, 100 μM Test Compound and 0.5 μM Riboflavin: 33.5 min |
| COc1ccc(C(=O)O)cc1 [4-Methoxy Benzoic Acid] | 33.5 | – | – |
| COc1ccc(C=CCO)cc1O [3-Hydroxy-4-Methoxy Cinnamyl Alcohol] | 50.2 | 50.2 | – |
| Oc1ccc2ccccc2c1 [2-Hydroxynaphthalene] | 23.2 | 30.1 | – |
| OCCc1ccsc1 [Thiophene-3-ethanol] | 50.2 | – | – |

Reference: patent US20010056085A1, “Methods of using vesicant drug formulations” (priority 1996, published 2001)
